Assay results taken from the OPERA property sets (Mansouri et al. 2018).

Details: not given
In the case of `CC(C)(C)c1cc(-n2nc3ccc(Cl)cc3n2)c(O)c(C(C)(C)C)c1`, the ready biodegradability is reported as “not readily biodegradable”. Work on `CCCCCCCCCCCCCCCCCCCC(=O)O` yielded a boiling point of 328 °C, a log10 vapour pressure (mmHg) of -8.74 and a melting point of 75.4 °C. `C=CCN=C=S` gave a boiling point of 152 °C, a log10 vapour pressure (mmHg) of 0.568 and a melting point of -80 °C. `CC(CCC(=O)O)n1nnc2ccccc21` (stereo not given) showed a melting point of 86 °C. In the case of `CN(C)CC(O)c1ccc(O)c(O)c1` (stereo not given), the melting point is reported as 149 °C. With `CCON=O` the boiling point was 18 °C. Work on `Cc1cc(O)c2c(O)c3c(O)cccc3cc2c1` yielded a melting point of 204 °C. With `Nc1cccc2cccc(S(=O)(=O)O)c12` the ready biodegradability was “not readily biodegradable”. For `COc1ccc(NC(N)=O)cc1Cl`, the log10 Koc (L/kg) was 2. Work on `COCCCNc1nc(NCCCOC)nc(SC)n1` yielded a melting point of 55 °C. `C=CCOC=C` gave a boiling point of 66 °C. In the case of `O=C(O)CONC(=O)c1ccccc1`, the melting point is reported as 140 °C. In the case of `Oc1ccc([C@H]2COc3cc(O)ccc3C2)cc1`, the melting point is reported as 190 °C. In the case of `C=CC(=O)OCC`, the boiling point is reported as 99.4 °C, the log10 vapour pressure (mmHg) is reported as 1.59 and the melting point is reported as -71.2 °C. The ready biodegradability was “readily biodegradable”. `O=C(C=Cc1ccccc1)OCc1ccccc1` showed a boiling point of 350 °C, a log10 vapour pressure (mmHg) of -5 and a melting point of 39 °C. `CCCCCCCCCCCCCCCCCCS` gave a boiling point of 360 °C, a log10 vapour pressure (mmHg) of -6.4 and a melting point of 30 °C. For the same compound, the ready biodegradability was “not readily biodegradable”. For `O[C@@H](c1ccccc1)[C@@H](O)c1ccccc1`, the melting point was 138 °C. For `OC(CCl)CCl`, the boiling point was 176 °C, the log10 vapour pressure (mmHg) was -0.125 and the melting point was -4 °C. The ready biodegradability was “readily biodegradable”. Compound `CC(CO)c1ccccc1` (stereo not given) has a log10 vapour pressure (mmHg) of -1.72 and a melting point of -13 °C. In the case of `CCOC(=O)C1(S(=O)(=O)c2ccc(C)cc2)CCC1`, the melting point is reported as 53.5 °C. With `C[C@@H]1C[C@H]2[C@@H]3C[C@H](F)C4=CC(=O)C=C[C@]4(C)[C@H]3[C@@H](O)C[C@]2(C)[C@H]1C(=O)CO` the melting point was 188 °C. For `CCCCOC(=O)COC(=O)c1ccccc1C(=O)OCCCC`, the log10 Koc (L/kg) was 3.7 and the ready biodegradability was “readily biodegradable”. Compound `CC(=O)c1ccc(O)cc1C` has a boiling point of 313 °C and a melting point of 128 °C. Compound `Cc1ccc(O)c(C)c1` has a boiling point of 211 °C, a log10 Henry constant (atm·m³/mol) of -6.02 and a log10 vapour pressure (mmHg) of -0.991. The melting point was 24.5 °C and the ready biodegradability was “readily biodegradable”. In the case of `CCCN(CCC)c1c([N+](=O)[O-])cc(C)cc1[N+](=O)[O-]`, the melting point is reported as 80 °C. In the case of `O=C1OCc2c(Cl)c(Cl)c(Cl)c(Cl)c21`, the log10 Koc (L/kg) is reported as 3.3, the log10 vapour pressure (mmHg) is reported as -7.65 and the melting point is reported as 210 °C. `O=C(C=NO)c1ccccc1` gave a melting point of 129 °C. For `C=C(C)C(=O)OC(C)(C)C`, the ready biodegradability was “not readily biodegradable”. In the case of `OCCC1CCNCC1`, the boiling point is reported as 228 °C. For `O=C1C=C2C(=CCOC2O)O1` (stereo not given), the melting point was 111 °C. With `CCC(C)C(CC)CC` (stereo not given) the boiling point was 140 °C. For `ClC=C(Cl)C(Cl)Cl`, the boiling point was 162 °C. Work on `CCOC(OCC)c1ccco1` yielded a boiling point of 192 °C. In the case of `CCOCCN(Cc1ccc(CN(CCOCC)C(=O)C(Cl)Cl)cc1)C(=O)C(Cl)Cl`, the melting point is reported as 140 °C. `O=C1OC(c2cc(Br)c(O)c(Br)c2)(c2cc(Br)c(O)c(Br)c2)c2ccccc21` showed a melting point of 296 °C. `Cc1cccc2cccc(C)c12` gave a boiling point of 270 °C, a log10 vapour pressure (mmHg) of -2.32 and a melting point of 65 °C. With `Oc1ccccc1Cc1ccccc1` the boiling point was 312 °C and the melting point was 21 °C. `FC(F)(F)c1nc2c(Cl)c(Cl)ccc2[nH]1` gave a melting point of 214 °C. `CCC(C)(C)CO` gave a boiling point of 136 °C. `CCc1ccccc1Nc1ccccc1CC` showed a melting point of 29 °C. In the case of `C=CC12CN(C)C3C4COC(CC41)[C@]1(C(=O)Nc4ccccc41)C32` (stereo not given in full), the melting point is reported as 178 °C. For `Clc1cc2c(oc3c(Cl)c(Cl)c(Cl)c(Cl)c32)c(Cl)c1Cl`, the log10 Koa was 11.2, the log10 vapour pressure (mmHg) was -10.5 and the melting point was 233 °C. In the case of `CCOC(=O)c1c(C)cc(O)cc1O`, the melting point is reported as 132 °C. `CCOC(=O)C(Cc1ccccc1)C(=O)OCC` gave a boiling point of 300 °C. For `N#CC(CCN1CCC(C(N)=O)(N2CCCCC2)CC1)(c1ccccc1)c1ccccc1`, the melting point was 150 °C. `CN(C(=O)COc1nc2ccccc2s1)c1ccccc1` gave a log10 vapour pressure (mmHg) of -8.32 and a melting point of 135 °C. `CC1(C)[C@H](C(=O)O[C@H](C#N)c2cccc(Oc3ccccc3)c2)[C@@H]1C(Br)C(Br)(Br)Br` (stereo not given in full) showed a log10 Koc (L/kg) of 5, a log10 vapour pressure (mmHg) of -10.4 and a melting point of 143 °C. Work on `CCCCOc1ccc(C(=O)O)cc1` yielded a melting point of 148 °C. Work on `ClC(I)I` yielded a melting point of -4 °C. `Cc1c(F)c(F)c(F)c(F)c1F` showed a boiling point of 118 °C and a melting point of -29.8 °C. In the case of `Cc1ccccc1CBr`, the boiling point is reported as 217 °C and the melting point is reported as 21 °C. Work on `CC(C)COC(=O)c1ccccc1O` yielded a boiling point of 261 °C and a melting point of 5.9 °C. Work on `Cc1ccc2[nH]c3ccccc3c2c1` yielded a boiling point of 365 °C and a melting point of 208 °C. For `O=P(N1CC1)(N1CC1)N1CC1`, the melting point was 41 °C. Compound `CC(C(C)(C)C)C(C)(C)C` has a boiling point of 159 °C and a melting point of -38.7 °C. For `C[Si]1(c2ccccc2)O[Si](C)(c2ccccc2)O[Si](C)(c2ccccc2)O1` (stereo not given), the melting point was 100 °C. `O=[N+]([O-])c1ccc(F)cc1O` gave a log10 Henry constant (atm·m³/mol) of -4.71, a log10 vapour pressure (mmHg) of -1.64 and a melting point of 36 °C. Work on `O=[N+]([O-])c1ccc(/C=C/c2cccc(CO)n2)o1` yielded a melting point of 170 °C. With `CCCCCCCCCCCCCCCC[N+](C)(C)C` the ready biodegradability was “not readily biodegradable”. With `CC1CC(C)(C)CC(OOC(C)(C)C)(OOC(C)(C)C)C1` (stereo not given) the melting point was -30 °C and the ready biodegradability was “not readily biodegradable”. Compound `CN(C)c1ccc(C(=O)c2ccccc2)cc1` has a melting point of 92.5 °C. `CCN(Cc1ccc(Cl)nc1)/C(=C/[N+](=O)[O-])NC` showed a log10 vapour pressure (mmHg) of -11.1. Compound `CCCCCCCCCCCCN1CC(C(=O)O)CC1=O` (stereo not given) has a melting point of 39 °C. For `Oc1c(Br)c(Br)c(O)c(Br)c1Br`, the melting point was 244 °C. Work on `Brc1cc2c(cc1Br)Oc1cc(Br)c(Br)cc1O2` yielded a log10 vapour pressure (mmHg) of -8.32 and a melting point of 334 °C. `CCCCCCCCCCCC=O` gave a log10 vapour pressure (mmHg) of -1.82 and a melting point of 44.5 °C. `NC(Cc1cc(Br)c(O)c(Br)c1)C(=O)O` (stereo in doubt) gave a melting point of 245 °C. For `CC(C)(O)C(Br)(Br)Br`, the melting point was 169 °C. For `CC(=O)NC(=O)c1ccccc1O`, the melting point was 148 °C. In the case of `CC(=O)Oc1cccnc1`, the ready biodegradability is reported as “readily biodegradable”. Compound `BrCCCCCCCCBr` has a boiling point of 271 °C and a melting point of 15.5 °C. Work on `CCOC(=O)C1OC1(C)c1ccccc1` (stereo not given) yielded a boiling point of 274 °C. In the case of `Clc1ccccc1Oc1ccccc1`, the log10 vapour pressure (mmHg) is reported as -2.4. `CCC(=O)O[C@H]1CC[C@H]2[C@@H]3CCC4=CC(=O)CC[C@]4(C)[C@H]3CC[C@]12C` gave a melting point of 120 °C. For `CC(C)c1ccc(CO)cc1`, the boiling point was 249 °C, the melting point was 28 °C and the ready biodegradability was “readily biodegradable”. For `CC(=O)c1cc2c(cc1C)C(C)(C)C(C)CC2(C)C` (stereo not given), the melting point was 54.5 °C. Compound `CCOC(=O)C(C)[N+](=O)[O-]` (stereo not given) has a boiling point of 190 °C. For `O=C(O)Cc1ccc([N+](=O)[O-])cc1`, the melting point was 154 °C. In the case of `C=CC(C)CCC=C(C)C` (stereo not given), the ready biodegradability is reported as “readily biodegradable”. In the case of `CC(C)(C)C(=O)O`, the boiling point is reported as 164 °C, the log10 Henry constant (atm·m³/mol) is reported as -5.56 and the log10 vapour pressure (mmHg) is reported as -0.301. The melting point was 35 °C and the ready biodegradability was “not readily biodegradable”. `CC(C)c1ccc(O)c(O)c1` gave a boiling point of 271 °C and a melting point of 78 °C. With `CCOCC1CO1` (stereo not given) the boiling point was 128 °C. In the case of `O=C(O)Cc1cccc2ccccc12`, the log10 Koc (L/kg) is reported as 2.2, the melting point is reported as 135 °C and the ready biodegradability is reported as “not readily biodegradable”. With `CC/C=C(\C)C(=O)O` the boiling point was 214 °C and the melting point was 24.4 °C.

Same assay, conditions: fish
`CC(C)(C)c1cc(-n2nc3ccc(Cl)cc3n2)c(O)c(C(C)(C)C)c1` gave a log10 BCF of 3.57 and a log10 biotransformation half-life (days) of 0.72. `Clc1cc(Cl)c(-c2c(Cl)c(Cl)c(Cl)c(Cl)c2Cl)c(Cl)c1Cl` gave a log10 biotransformation half-life (days) of 2.66. Compound `Clc1cc2c(oc3c(Cl)c(Cl)c(Cl)c(Cl)c32)c(Cl)c1Cl` has a log10 BCF of 3.45 and a log10 biotransformation half-life (days) of 0.9. Compound `CC1CC(C)(C)CC(OOC(C)(C)C)(OOC(C)(C)C)C1` (stereo not given) has a log10 BCF of 3.96. `CC(C)(C)C(=O)O` showed a log10 BCF of 0.36. `O=C(O)Cc1cccc2ccccc12` showed a log10 BCF of 0.47.
